Results published in patent publication US11130780B2, “Inhibitors of growth factor activation enzymes” (Washington University, priority 2015, dated 2021).
Like-named read-outs stand apart in the source and are kept apart here.

Legend:
[1] = target: thrombin (Homo sapiens, UniProt P00734); experiment: Chromogenic kinetic enzyme assay of thrombin; type: biochemical; conditions: Table 4.1; read-out: Thrombin Ki
Summary of the method: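 Recombinant human thrombin (0.15 nM) or Factor Xa (0.35 nM) was mixed with 11-point inhibitor dilutions (0–20 μM, 2% DMSO) in TNC buffer, pH 8. Kinetic absorbance at 405 nm gave velocities. IC50 came from a four-parameter fit and Ki from Cheng–Prusoff.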

[2] = target: T1, HGFA (Homo sapiens, UniProt Q04756); experiment: Fluorescent kinetic enzyme inhibitor assay of HGFA; type: biochemical
T1 construct: His6 tag (N); seven amino acid spacer and seven amino acid TEV cleavage site (N); Honey Bee melittin signal peptide (N); made in house; host or cells: High 5 insect cells (baculovirus; virus raised in Sf9)
T1 sequence (Q04756 373-655): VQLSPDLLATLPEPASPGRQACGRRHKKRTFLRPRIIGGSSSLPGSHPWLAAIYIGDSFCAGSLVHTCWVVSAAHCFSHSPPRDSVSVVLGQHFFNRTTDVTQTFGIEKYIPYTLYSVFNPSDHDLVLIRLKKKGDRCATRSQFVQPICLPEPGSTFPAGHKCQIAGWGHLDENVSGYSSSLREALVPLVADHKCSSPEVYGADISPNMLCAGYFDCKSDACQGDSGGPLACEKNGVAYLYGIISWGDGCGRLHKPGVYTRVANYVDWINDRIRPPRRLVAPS
Summary of the method: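 Recombinant His-tagged HGFA residues 373-655 from insect cells, with substrate at Km. Inhibitors in 11-point dilutions, 0-20 μM final, 2% DMSO, fluorescence (ex 380/em 460 nm) followed over time at room temperature. IC50 from four-parameter fit of mean velocity, average of three experiments.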

[3] = Table 4.2, Boc-QLR-AMC substrate, read-out: HGFA Ki

SMILES	Ki [1] [µM]	Ki [2, 3] [nM]	Ki ([2]; read-out: Ki for HGFA) [nM]	selectivity among HGFA, matriptase and hepsin [2]
CC(=O)N[C@@H](CCCCN)C(=O)N[C@@H](CCC(N)=O)C(=O)N[C@@H](CC(C)C)C(=O)N[C@@H](CCCNC(=N)N)C(=O)c1nccs1 [Compound 5, Ac-KQLR(SEQ ID NO: 1)-kt]	> 20	70	53	–
CC(=O)N[C@@H](CCCCN)C(=O)N[C@@H](CCC(N)=O)C(=O)N[C@@H](Cc1ccccc1)C(=O)N[C@@H](CCCNC(=N)N)C(=O)c1nccs1 [Compound 5c, Ac-KQFR(SEQ ID NO: 4)-kt]	> 20	58	–	–
CC(=O)N[C@@H](CCCNC(=N)N)C(=O)N[C@@H](CCC(N)=O)C(=O)N[C@@H](CC(C)C)C(=O)N[C@@H](CCCNC(=N)N)C(=O)c1nccs1 [Compound 5e, Ac-RQLR(SEQ ID NO: 6)-kt]	> 20	60	–	–
CC(=O)N[C@@H](CCCCN)C(=O)N[C@@H](CCCNC(=N)N)C(=O)N[C@@H](CC(C)C)C(=O)N[C@@H](CCCNC(=N)N)C(=O)c1nccs1 [Compound 5g, Ac-KRLR(SEQ ID NO: 8)-kt]	–	12	–	–
CC(=O)N[C@@H](Cc1c[nH]c2ccccc12)C(=O)N[C@@H](CCCNC(=N)N)C(=O)N[C@@H](CC(C)C)C(=O)N[C@@H](CCCNC(=N)N)C(=O)c1nccs1 [Compound 5h, Ac-WRLR(SEQ ID NO: 9)-kt]	–	21	–	–
CC(=O)N[C@@H](CO)C(=O)N[C@@H](CCCCN)C(=O)N[C@@H](CC(C)C)C(=O)N[C@@H](CCCNC(=N)N)C(=O)c1nccs1 [Compound 6, Ac-SKLR(SEQ ID NO: 10)-kt]	> 20	–	81	–
CC(=O)N[C@@H](CO)C(=O)N[C@@H](CCCCN)C(=O)N[C@@H](Cc1ccccc1)C(=O)N[C@@H](CCCNC(=N)N)C(=O)c1nccs1 [Compound 6c, Ac-SKFR(SEQ ID NO: 13)-kt]	> 2	57	–	HGFA selectivity over both hepsin and matriptase
CC(=O)N[C@@H](CO)C(=O)N[C@@H](CCCNC(=N)N)C(=O)N[C@@H](CC(C)C)C(=O)N[C@@H](CCCNC(=N)N)C(=O)c1nccs1 [Compound 6e, Ac-SRLR(SEQ ID NO: 15)-kt]	–	24	–	HGFA selectivity over both hepsin and matriptase
CC(=O)N[C@@H](CO)C(=O)N[C@@H](Cc1c[nH]c2ccccc12)C(=O)N[C@@H](CC(C)C)C(=O)N[C@@H](CCCNC(=N)N)C(=O)c1nccs1 [Compound 6g, Ac-SWLR(SEQ ID NO: 17)-kt]	3.7	63	66	HGFA selectivity over both hepsin and matriptase
N=C(N)c1ccc2cc(OC(=O)c3ccc(N=C(N)N)cc3)ccc2c1 [Nafamostat, reference compound]	–	25	–	–
